Here are results for 1 compound from patent US20230404985A1, “METHODS OF TREATING TUMORS AND CANCERS HAVING DYSREGULATED WNT SIGNALING PATHWAYS” (ICAHN SCHOOL OF MEDICINE AT MOUNT SINAI, priority 2020, published 2023).

The test has as its system cytoplasmic kinases including BRAF and p38α/β. Put plainly: NanoBRET live cell target engagement, cytoplasmic kinases. Type of test: cell-based. Conditions: relative to sorafenib and regorafenib. How it is done:
For NanoBRET™ dose response experiments, SNU398 cells were transfected with a MAPK14-NanoLuc© Fusion Vector according to the Promega NanoBRET™ TE Intracellular Kinase Assay protocol. Following overnight transfection, cells were trypsinized and redistributed on a white 96-well plate (20,000 cells per well). Cells were incubated with 1 μM of K-4 Tracer and sorafenib or WNTinib at doses ranging from 0.02→20 μM for two hours. After drug incubation, plates were equilibrated to room temperature for 15 minutes, and NanoBRET™ Nano-Glo© Substrate and Extracellular NanoLuc© Inhibitor were added to wells. Bioluminescent donor (NanoLuc© luciferase) and fluorescent acceptor (Tracer) emission were measured on a GloMax plate reader at 450 and 600 nm, respectively. BRET ratio is reported as acceptor signal divided by the donor signal for each well. Conditions were evaluated in technical triplicates for each experiment, and experiments were repeated in biological duplicates. […] The plate was continuously read on a GloMax plate reader for 2 hours to record BRET signal from the association of the K-4 Tracer with the MAPK14-NanoLuc© Fusion Vector. Conditions were evaluated in technical triplicates, and experiments were repeated in biological duplicates.
In order to characterize the direct targets of WNTinib, kinome selectivity profiles were first assessed by in vitro kinase assays. […]
On the technique in general: BRET reads energy transfer from a luciferase to a nearby fluorophore.

The structures appear in SMILES notation.

Take `CNC(=O)c1cc(Oc2ccc(NC(=O)Nc3ccc(C(F)(F)C(F)(F)F)cc3)c(F)c2)ccn1` [WNTinib, 4-(3-fluoro-4-(3-(4-(perfluoroethyl)phenyl)ureido)phenoxy)-N-methylpicolinamide]: the “target engagement potency on cytoplasmic kinases BRAF and p38α/β” value was “markedly less potent than sorafenib and regorafenib”.
